ChEMBL document CHEMBL1255445, “Evaluation of nucleoside hydrolase inhibitors for treatment of African trypanosomiasis” (Antimicrob Agents Chemother, 2010)
The source made the active and inactive calls.

Key:
[1] = Inhibition of Trypanosoma vivax Inosine-adenosine-guanosine-nucleoside hydrolase
[2] = Inhibition of Trypanosoma brucei brucei inosine-adenosine-guanosine nucleoside hydrolase (IAG-NH)
[3] = Inhibition of Trypanosoma brucei brucei Inosine guanosine nucleoside hydrolase
[4] = Inhibition of human purine nucleoside phosphorylase
[5] = system: Trypanosoma brucei brucei; test: Antitrypanosomal activity against suramin sensitive Trypanosoma brucei brucei Lister 427 assessed as reduction in parasite growth after 3 days by fluorometrically; type: functional, organism-based; details: Lister 427, 72 h
[6] = Cytotoxicity against human MRC5 SV2 cells after 48 hrs; type: cell-based; details: MRC5, 48 h
Trypanosoma cruzi = test: Antitrypanosomal activity against Trypanosoma cruzi Tulahuen CL2 s-galactosidase strain assessed as reduction in parasite growth after 3 days by fluorometrically; type: functional, organism-based
Leishmania infantum = test: Antileishmanial activity against Leishmania infantum MHOM/MA/67/ITMAP263 intracellular amastigotes assessed as reduction in parasite growth after 3 days by fluorometrically; type: functional, organism-based
Plasmodium falciparum = test: Antiparasitic activity against chloroquine-sensitive Plasmodium falciparum Ghana assessed as reduction in parasite growth after 3 days by fluorimetry; type: functional, organism-based
[7] = Inhibition of Trypanosoma brucei brucei Lister 427 Nucleoside transporter P1 by scintillation counting
[8] = Inhibition of Trypanosoma brucei brucei Lister 427 Nucleoside/nucleobase transporter P2 transporter by scintillation counting
[9] = system: Trypanosoma brucei rhodesiense; test: Antitrypanosomal activity against Trypanosoma brucei rhodesiense assessed as reduction in parasite growth after 3 days by fluorometrically; type: functional, organism-based; details: 72 h
[10] = system: Trypanosoma brucei brucei; test: Antitrypanosomal activity against suramin sensitive Trypanosoma brucei brucei Lister 427 assessed as reduction in parasite growth at > 5 uM by Alamar blue assay; type: functional, organism-based
[11] = system: Trypanosoma brucei brucei; test: Antitrypanosomal activity against suramin sensitive Trypanosoma brucei brucei Lister 427 assessed as reduction in viability and mortality up to 20 uM over 7 hrs by in vitro lysis assay; type: functional, organism-based
[12] = system: Trypanosoma brucei brucei; test: Antitrypanosomal activity against suramin sensitive Trypanosoma brucei brucei Lister 427 assessed as parasite killing at 0.25 uM within 5 hrs; type: functional, organism-based
[13] = system: Trypanosoma brucei brucei; test: Antitrypanosomal activity against suramin sensitive Trypanosoma brucei brucei Lister 427 assessed as parasite killing at 1 uM after 24 hrs; type: functional, organism-based
[14] = system: Trypanosoma brucei brucei; test: Antitrypanosomal activity against suramin sensitive Trypanosoma brucei brucei Lister 427 assessed as parasite killing at 10 uM after 48 hrs; type: functional
[15] = system: Trypanosoma brucei brucei; test: Antitrypanosomal activity against suramin sensitive Trypanosoma brucei brucei Lister 427 infected in Swiss Webster mouse assessed as parasite clearance in blood at 50 mg/kg treated orally for 1 day followed by intraperitoneally for 4 days measured on 10 days post-infection; type: functional, organism-based; set-up: dose 50 mg/kg
[16] = system: Trypanosoma brucei brucei; test: Antitrypanosomal activity against suramin sensitive Trypanosoma brucei brucei Lister 427 infected in Swiss Webster mouse assessed as parasite clearance in blood at 50 mg/kg treated orally for 1 day followed by intraperitoneally for 4 days measured on 14 days post-infection; type: functional, organism-based; set-up: dose 50 mg/kg
[17] = system: Trypanosoma brucei brucei; test: Antitrypanosomal activity against suramin sensitive Trypanosoma brucei brucei Lister 427 infected in Swiss Webster mouse assessed as parasite clearance in blood at 50 mg/kg treated orally for 1 day followed by intraperitoneally for 4 days measured on 21 days post-infection; type: functional, organism-based; set-up: dose 50 mg/kg
[18] = system: Trypanosoma brucei brucei; test: Antitrypanosomal activity against suramin sensitive Trypanosoma brucei brucei Lister 427 infected in Swiss Webster mouse assessed as mouse survival at 50 mg/kg treated 1 day po and for 4 days in ip measured on 21 days after infectio; type: functional
[19] = Inhibition of Trypanosoma brucei brucei Lister 427 H2 transporter by scintillation counting

SMILES | Ki [1] [µM] | Ki [2] [µM] | Ki [3] [µM] | Ki [4] [µM] | IC50 [5] [µM] | IC50 [6] [µM] | Activity (Trypanosoma cruzi) | Activity (Leishmania infantum) | Activity (Plasmodium falciparum) | Ki [7] [µM] | other results
Nc1ncnc2c(C3N[C@H](CO)[C@@H](O)[C@H]3O)c[nH]c12 (stereo partly drawn) [IMMUCILLIN A] | 0.0062 | 0.0009 | 0.0044 | > 10 | > 64 | > 64 | inactive | inactive | inactive | – | –
O=c1[nH]cnc2c([C@@H]3N[C@H](CO)[C@@H](O)[C@H]3O)c[nH]c12 [FORODESINE] | 0.0062 | 0.024 | 0.009 | – | > 64 | > 64 | inactive | inactive | inactive | – | –
OC[C@@H]1[C@@H](O)[C@@H](O)CN1Cc1c[nH]c2c(O)ncnc12 | 0.0044 | 0.03 | 138 | 0.0058 | > 64 | > 64 | inactive | inactive | inactive | > 1000 | –
Nc1nc2c(CN3C[C@H](O)[C@H](O)[C@H]3CO)cccc2s1 | 0.04 | 0.56 | 14 | > 1000 | > 64 | > 64 | inactive | inactive | inactive | 810 | –
OC[C@@H]1[C@@H](O)[C@@H](O)CN1Cc1cccc2cccnc12 | 0.011 | 0.446 | 11 | > 1000 | > 64 | > 64 | inactive | inactive | inactive | – | –
Nc1ncnc2c(CN3C[C@H](O)[C@H](O)[C@H]3CO)csc12 | 0.019 | 0.056 | 31 | 1000 | > 64 | > 64 | inactive | inactive | inactive | 540 | Ki [8]: 125 µM
COc1ccnc2c(CN3C[C@H](O)[C@H](O)[C@H]3CO)cccc12 | 0.029 | – | – | > 1000 | > 64 | > 64 | inactive | inactive | inactive | – | –
OC[C@@H]1[C@@H](O)[C@@H](O)CN1Cc1cccc2cncnc12 | 0.058 | – | – | > 1000 | > 64 | > 64 | inactive | inactive | inactive | – | –
O=c1[nH]cnc2c(CN3C[C@H](O)[C@H](O)[C@H]3CO)csc12 | 0.02 | 0.19 | 120 | 77.6 | > 34 | > 64 | inactive | inactive | inactive | 300 | –
Nc1ncnc2c(CN3C[C@H](O)[C@H](O)[C@H]3CO)c[nH]c12 | 0.0041 | 0.018 | 32 | 22.5 | 0.49 | > 64 | inactive | inactive | inactive | 360 | IC50 [9]: 0.26 µM; Activity [10]: Active; Activity [11]: inactive; Activity [12]: Active; Activity [13]: Active; Activity [14]: 75%; Activity [15]: Active; Activity [16]: Active; Activity [17]: Active; Activity [18]: 75%; Ki [8]: 8.2 µM; Ki [19]: 590 µM
